Our source for the GI50 values is patent publication US20250206718A1, “NITROGEN-CONTAINING HETEROCYCLIC DERIVATIVE INHIBITOR, PREPARATION METHOD THEREFOR AND USE THEREOF” (SHANGHAI HANSOH BIOMEDICAL CO., LTD., priority 2022, published 2025).

Ba/F3 EGFR Del19/C797S cells, sequence (P00533 with tags, fused parts or gaps DEL746-750/C797S, form open): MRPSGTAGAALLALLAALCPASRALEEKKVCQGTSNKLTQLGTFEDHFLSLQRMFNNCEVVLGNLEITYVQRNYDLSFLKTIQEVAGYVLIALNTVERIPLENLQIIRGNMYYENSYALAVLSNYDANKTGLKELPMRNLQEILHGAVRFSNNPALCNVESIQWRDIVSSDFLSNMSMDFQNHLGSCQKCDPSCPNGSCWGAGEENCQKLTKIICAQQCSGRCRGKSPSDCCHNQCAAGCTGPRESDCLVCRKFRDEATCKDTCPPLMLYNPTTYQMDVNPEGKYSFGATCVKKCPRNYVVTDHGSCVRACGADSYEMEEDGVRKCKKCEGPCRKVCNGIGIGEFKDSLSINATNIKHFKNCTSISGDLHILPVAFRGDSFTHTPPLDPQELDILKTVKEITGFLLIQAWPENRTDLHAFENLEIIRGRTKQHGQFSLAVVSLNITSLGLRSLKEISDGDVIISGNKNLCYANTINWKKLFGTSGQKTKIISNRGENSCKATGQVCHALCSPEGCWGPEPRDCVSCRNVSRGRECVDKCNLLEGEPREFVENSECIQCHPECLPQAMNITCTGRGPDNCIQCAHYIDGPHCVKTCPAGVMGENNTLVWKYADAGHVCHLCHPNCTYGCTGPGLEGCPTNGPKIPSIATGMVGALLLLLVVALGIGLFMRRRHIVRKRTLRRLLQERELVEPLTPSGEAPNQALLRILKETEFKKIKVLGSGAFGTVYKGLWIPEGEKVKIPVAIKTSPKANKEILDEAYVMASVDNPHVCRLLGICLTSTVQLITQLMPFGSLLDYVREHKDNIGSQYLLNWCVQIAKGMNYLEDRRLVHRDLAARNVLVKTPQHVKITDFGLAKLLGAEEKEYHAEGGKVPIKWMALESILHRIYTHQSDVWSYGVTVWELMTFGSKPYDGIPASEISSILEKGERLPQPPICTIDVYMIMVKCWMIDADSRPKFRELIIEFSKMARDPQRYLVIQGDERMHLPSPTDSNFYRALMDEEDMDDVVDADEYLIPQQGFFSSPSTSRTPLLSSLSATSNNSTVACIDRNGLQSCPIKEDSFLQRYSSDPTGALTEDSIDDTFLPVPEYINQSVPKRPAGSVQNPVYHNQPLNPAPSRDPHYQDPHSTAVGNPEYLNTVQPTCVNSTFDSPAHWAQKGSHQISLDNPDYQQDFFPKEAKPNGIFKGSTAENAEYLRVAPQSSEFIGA

The target of the assay is Ba/F3 EGFR Del19/C797S cells (Homo sapiens, UniProt P00533, C797S, cells depend on it, form not given). The assay can be described thus: Cell proliferation inhibition (Cell Titer-Glo), Ba/F3 EGFR Del19/C797S. Type of assay: cell-based, mouse. The conditions noted are these: 72 hours, CellTiter-Glo, read-out: Ba/F3 EGFR Del19/C797S IC50. The source says:
Experimental objective: The objective of this test example is to test the inhibitory activity of compounds on the proliferation of different EGFR C797S drug-resistant mutant cell lines Ba/F3 EGFR Del19/T790M/C797S, Ba/F3 EGFR L858R/T790M/C797S, and Ba/F3 EGFR Del19/C797S.
• Ba/F3 EGFR Del19/T790M/C797S cells were purchased from KYinno Biotechnology Co., Ltd.; • Ba/F3 EGFR Del19/C797S cells were purchased from CoBioer Biosciences Co., Ltd.; • Ba/F3 EGFR L858R/T790M/C797S cells were purchased from CoBioer Biosciences Co., Ltd.; • Cell Titer-Glo was purchased from Promega, with a catalog number of G7573; • RPMI 1640 was purchased from Gibco, with a catalog number of 22400089; • FBS was purchased from Gibco, with a catalog number of 10091148; • cell culture plates were purchased from Corning, with a catalog number of 3610.
The inhibitory activity of the compound on the proliferation of different EGFR C797S drug-resistant mutant cell lines was detected using the Cell Titer-Glo method. The different cell lines were cultured in RPMI 1640 complete culture medium containing 10% FBS under conditions of 37° C. and 5% CO2, the cells were collected by centrifugation when growing to a certain density, and adjusted to appropriate cell density after counting, the cells were spread on a white 96-well plate at 90 μL/well, and cultured in a 37° C., 5% CO2 incubator overnight, prepared compound solutions of different concentrations were added at 10 μL/well, corresponding solvent controls were set, and all wells were cultured in a 37° C., 5% CO2 incubator for 72 hours, 50 μL of CellTiter-Glo solution was added to each well, shook and mixed evenly, and incubated in the dark for 10 minutes, and a BioTek Synergy H1 microplate reader was used for reading.
The luminescence signal value was used to calculate the inhibition rate. Graphpad Prism software was used to fit the concentration and inhibition rate to a nonlinear regression curve, so as to obtain the IC50 value, as shown in the Table below for details.
Consider `CC(C)c1ccc(N2C[C@H](CS(C)(=O)=O)[C@H]2C)c2cnc(Nc3ccnc(-c4cn(C5CC5)nc4F)n3)cc12` [Example 9, N-(2-(1-cyclopropyl-3-fluoro-1H-pyrazol-4-yl)pyrimidin-4-yl)-5-isopropyl-8-((2R,3S)-2-methyl-3-((methylsulfonyl)methyl)azetidin-1-yl)isoquinolin-3-amine], for which the GI50 came out at 57 nM.
`CC(C)c1ncc(N2C[C@H](N(C)S(C)(=O)=O)[C@H]2C)c2cnc(Nc3ccnc(-c4cn(C)nc4Cl)n3)cc12` [Example 59, N-((2R,3S)-1-(7-((2-(3-chloro-1-methyl-1H-pyrazol-4-yl)pyrimidin-4-yl)amino)-1-isopropyl-2,6-diazanaphthalen-4-yl)-2-methylazetidin-3-yl)-N-methyl methanesulfonamide]: the GI50 was found to be 5 nM.
As for `Cc1nn(C)cc1-c1nccc(Nc2cc3c(C(C)C)ncc(N4CC(N(C)S(C)(=O)=O)C4)c3cn2)n1` [Example 60, N-(1-(7-((2-(1,3-dimethyl-1H-pyrazol-4-yl)pyrimidin-4-yl)amino)-1-isopropyl-2,6-diazanaphthalen-4-yl)azetidin-3-yl)-N-methyl methanesulfonamide], the figure is 5.6 nM; as for `Cc1nn(C)cc1-c1nccc(Nc2cc3c(C(C)C)ncc(N4C[C@H](N(C)S(C)(=O)=O)[C@H]4C)c3cn2)n1` [Example 61, N-((2R,3S)-1-(7-((2-(1,3-dimethyl-1H-pyrazol-4-yl)pyrimidin-4-yl)amino)-1-isopropyl-2,6-diazanaphthalen-4-yl)-2-methylazetidin-3-yl)-N-methyl methanesulfonamide], 6 nM.
As for `Cc1nn(C)cc1-c1nccc(Nc2cc3c(C(C)C)ccc(N4CC(N(C)S(C)(=O)=O)C4)c3cn2)n1` [Example 71, N-(1-(3-((2-(1,3-dimethyl-1H-pyrazol-4-yl)pyrimidin-4-yl)amino)-5-isopropylisoquinolin-8-yl)azetidin-3-yl)-N-methyl methanesulfonamide], the figure is 17 nM.
As for `CC(C)c1ccc(N2CC(N=S(C)(C)=O)C2)c2cnc(Nc3ccnc(-c4cn(C)nc4Cl)n3)cc12` [Example 102, ((1-(3-((2-(3-chloro-1-methyl-1H-pyrazol-4-yl)pyrimidin-4-yl)amino)-5-isopropylisoquinolin-8-yl)azetidin-3-yl)imino)dimethyl-16-sulfanone], the figure is 73 nM; as for `CC(C)c1ccc(N2C[C@H](N3CCOC3=O)[C@H]2C)c2cnc(Nc3ccnc(-c4cn(C)nc4Cl)n3)cc12` [Example 109, 3-((2R,3S)-1-(3-((2-(3-chloro-1-methyl-1H-pyrazol-4-yl)pyrimidin-4-yl)amino)-5-isopropylisoquinolin-8-yl)-2-methylazetidin-3-yl)oxazolidin-2-one], 14 nM.
For the compound `CC(C)c1ccc(N2C[C@H](CS(C)(=O)=O)[C@H]2C)c2cnc(Nc3ccnc(-c4cn(C(C)(C)C#N)nc4Cl)n3)cc12` [Example 112, 2-(3-chloro-4-(4-((5-isopropyl-8-((2R,3S)-2-methyl-3-((methanesulfonyl)methyl)azetidin-1-yl)isoquinolin-3-yl)amino)pyrimidin-2-yl)-1H-pyrazol-1-yl)-2-methylpropanenitrile], the GI50 came to 52 nM.
As for `CC(C)c1ccc(N2C[C@H](CS(C)(=O)=O)[C@H]2C)c2cnc(Nc3ccnc(-c4cn(CC(O)C(F)(F)F)nc4Cl)n3)cc12` (stereo partly drawn) [Example 113, 3-(3-chloro-4-(4-((5-isopropyl-8-((2R,3S)-2-methyl-3-((methanesulfonyl)methyl)azetidin-1-yl)isoquinolin-3-yl)amino)pyrimidin-2-yl)-1H-pyrazol-1-yl)-1,1,1-trifluoropropan-2-ol], the figure is 60 nM.
For `CC(=O)Cn1cc(-c2nccc(Nc3cc4c(C(C)C)ccc(N5C[C@H](CS(C)(=O)=O)[C@H]5C)c4cn3)n2)c(Cl)n1` [Example 114, 1-(3-chloro-4-(4-((5-isopropyl-8-((2R,3S)-2-methyl-3-((methanesulfonyl)methyl)azetidin-1-yl)isoquinolin-3-yl)amino)pyrimidin-2-yl)-1H-pyrazol-1-yl)propan-2-one] the value was 39 nM.
As for `CC(C)c1ccc(N2C[C@H](CS(C)(=O)=O)[C@H]2C)c2cnc(Nc3ccnc(-c4cn(C(C)C#N)nc4Cl)n3)cc12` (stereo partly drawn) [Example 115, 2-(3-chloro-4-(4-((5-isopropyl-8-((2R,3S)-2-methyl-3-((methanesulfonyl)methyl)azetidin-1-yl)isoquinolin-3-yl)amino)pyrimidin-2-yl)-1H-pyrazol-1-yl)propanenitrile], the figure is 73 nM; as for `CC(C)c1c(F)cc(N2CC(N(C)S(C)(=O)=O)C2)c2cnc(Nc3ccnc(-c4cn(C)nc4Cl)n3)cc12` [Example 124, N-(1-(3-((2-(3-chloro-1-methyl-1H-pyrazol-4-yl)pyrimidin-4-yl)amino)-6-fluoro-5-isopropylisoquinolin-8-yl)azetidin-3-yl)-N-methyl methanesulfonamide], 14 nM; as for `Cc1nn(C)cc1-c1nccc(Nc2cc3c(C(C)C)c(F)cc(N4CC(N(C)S(C)(=O)=O)C4)c3cn2)n1` [Example 129, N-(1-(3-((2-(1,3-dimethyl-1H-pyrazol-4-yl)pyrimidin-4-yl)amino)-6-fluoro-5-isopropylisoquinolin-8-yl)azetidin-3-yl)-N-methyl methanesulfonamide], 22 nM.
In the case of `CC(C)c1ncc(N2CC(N(C)S(C)(=O)=O)C2)c2cnc(Nc3ccnc(-c4cn(C)nc4Cl)n3)cc12` [Example 131, N-(1-(7-((2-(3-chloro-1-methyl-1H-pyrazol-4-yl)pyrimidin-4-yl)amino)-1-isopropyl-2,6-diazanaphthalen-4-yl)azetidin-3-yl)-N-methyl methanesulfonamide], the GI50 came out at 7.4 nM.
For `CC(C)c1ncc(N2C[C@H](CS(C)(=O)=O)[C@H]2C)c2cnc(Nc3ccnc(-c4cn(C)nc4Cl)n3)cc12` [Example 133, N-(2-(3-chloro-1-methyl-1H-pyrazol-4-yl)pyrimidin-4-yl)-5-isopropyl-8-((2R,3S)-2-methyl-3-((methanesulfonyl)methyl)azetidin-1-yl)-2,6-diazanaphthalen-3-amine] the value was 27 nM.
For `CC(C)c1ccc(N2C[C@H](CS(C)(=O)=O)[C@H]2C)c2cnc(Nc3ccnc(-c4cn(C5CC6(COC6)C5)nc4Cl)n3)cc12` [Example 141, N-(2-(3-chloro-1-(2-oxaspiro[3.3]heptan-6-yl)-1H-pyrazol-4-yl)pyrimidin-4-yl)-5-isopropyl-8-((2R,3S)-2-methyl-3-((methanesulfonyl)methyl)azetidin-1-yl)isoquinolin-3-amine] the value was 64 nM; for `CC(C)c1ccc(N2C[C@H](CS(C)(=O)=O)[C@H]2C)c2cnc(Nc3ccnc(-c4cn([C@H]5CCOC5)nc4Cl)n3)cc12` [Example 142, N-(2-(3-chloro-1-((S)-tetrahydrofuran-3-yl)-1H-pyrazol-4-yl)pyrimidin-4-yl)-5-isopropyl-8-((2R,3S)-2-methyl-3-((methanesulfonyl)methyl)azetidin-1-yl)isoquinolin-3-amine], 41 nM.
As to `CC(C)c1ccc(N2C[C@H](CS(C)(=O)=O)[C@H]2C)c2cnc(Nc3ccnc(-c4cn([C@@H]5CCOC5)nc4Cl)n3)cc12` [Example 143, N-(2-(3-chloro-1-((R)-tetrahydrofuran-3-yl)-1H-pyrazol-4-yl)pyrimidin-4-yl)-5-isopropyl-8-((2R,3S)-2-methyl-3-((methanesulfonyl)methyl)azetidin-1-yl)isoquinolin-3-amine], the GI50 came to 30 nM.
As for `CC(C)c1ccc(N2C[C@H](CS(C)(=O)=O)[C@H]2C)c2cnc(Nc3ccnc(-c4cn(C[C@H]5CCCO5)nc4Cl)n3)cc12` [Example 144, N-(2-(3-chloro-1-(((R)-tetrahydrofuran-2-yl)methyl)-1H-pyrazol-4-yl)pyrimidin-4-yl)-5-isopropyl-8-((2R,3S)-2-methyl-3-((methanesulfonyl)methyl)azetidin-1-yl)isoquinolin-3-amine], the figure is 26 nM; as for `CC(C)c1ccc(N2C[C@H](CS(C)(=O)=O)[C@H]2C)c2cnc(Nc3ccnc(-c4cn(C[C@@H]5CCCO5)nc4Cl)n3)cc12` [Example 145, N-(2-(3-chloro-1-(((S)-tetrahydrofuran-2-yl)methyl)-1H-pyrazol-4-yl)pyrimidin-4-yl)-5-isopropyl-8-((2R,3S)-2-methyl-3-((methanesulfonyl)methyl)azetidin-1-yl)isoquinolin-3-amine], 45 nM.
